Experimental data published in patent US20060069132A1, “Azolecarboxamide herbicides” (priority 2004, published 2006).

Columns and labels:
giant foxtail [1] = experiment: Test A pre-/postemergence herbicide test; assay type: in vivo, Setaria faberi
Summary of the method: (§1)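 Seeds sown in sandy loam received a preemergence directed soil spray of compound in non-phytotoxic solvent with surfactant; postemergence plants (2–10 cm, one- to two-leaf stage) were sprayed to runoff at the same time. After ~10 days in greenhouse, injury was rated visually versus untreated controls (0 = no effect, 100 = complete control).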

morningglory = experiment: Test A pre-/postemergence herbicide test; assay type: in vivo, Ipomoea spp.
Summary of the method: as §1

redroot pigweed = experiment: Test A pre-/postemergence herbicide test; assay type: in vivo, Amaranthus retroflexus
Summary of the method: as §1

large crabgrass = experiment: Test C pre-/postemergence herbicide test; assay type: in vivo, Digitaria sanguinalis
Summary of the method: (§2)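 Seeds were planted and sprayed preemergence with test chemicals in a non-phytotoxic solvent mixture containing surfactant; postemergence treatments went onto plants 2 to 18 cm tall (1- to 4-leaf stage). After 12 to 14 days in a greenhouse, injury was rated visually against untreated controls on a 0–100 scale.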

giant foxtail [2] = experiment: Test C pre-/postemergence herbicide test; assay type: in vivo, Setaria faberi
Summary of the method: as §2

goosegrass = experiment: Test C pre-/postemergence herbicide test; assay type: in vivo, Eleusine indica
Summary of the method: as §2

yellow nutsedge = experiment: Test C pre-/postemergence herbicide test; assay type: in vivo, Cyperus esculentus
Summary of the method: as §2

pigweed = experiment: Test C pre-/postemergence herbicide test; assay type: in vivo, Amaranthus retroflexus
Summary of the method: as §2

common ragweed = experiment: Test C pre-/postemergence herbicide test; assay type: in vivo, Ambrosia elatior; design: key to Plant response rating, Ragweed: 0 = no effect, 100 = complete control
Summary of the method: as §2

soybean = experiment: Test C pre-/postemergence herbicide test; assay type: in vivo, Glycine max
Summary of the method: as §2

velvetleaf = experiment: Test C pre-/postemergence herbicide test; assay type: in vivo, Abutilon theophrasti
Summary of the method: as §2

ducksalad = experiment: Test C flooded paddy test; assay type: in vivo, Heteranthera limosa
barnyardgrass = experiment: Test C flooded paddy test; assay type: in vivo, Echinochloa crus-galli
Summary of the method: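 Postemergence sprays were applied to plants 2 to 18 cm tall (1- to 4-leaf stage); in the flooded paddy test, barnyardgrass was grown to the 2-leaf stage. After 12 to 14 days in a greenhouse, injury was visually rated against untreated controls on a 0–100 scale (100 = complete control).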

[3] = Postemergence, 500 g ai/ha, 0 to 100 scale, 0 no effect, 100 complete control
[4] = Postemergence, 2000 g ai/ha, 0 to 100 scale, 0 no effect, 100 complete control
[5] = Preemergence, 2000 g ai/ha, visual rating, 0 to 100 scale (0 no effect, 100 complete control)
[6] = preemergence, 500 g ai/ha, visual injury, 0 to 100 scale (0 no effect, 100 complete control)
[7] = Postemergence, 500 g ai/ha, scale 0 to 100
[8] = Postemergence, 250 g ai/ha, scale 0 to 100, 0 no effect, 100 complete control
[9] = postemergence, 125 g ai/ha, scale 0 to 100
[10] = postemergence, 62 g ai/ha, scale 0 to 100
[11] = 125 g ai/ha, scale 0 to 100 (0 no effect, 100 complete control)
[12] = 250 g ai/ha, scale of 0 to 100, 0 is no effect, 100 is complete control
[13] = 500 g ai/ha, visual rating after 12 to 14 days, scale 0 to 100 (0 no effect, 100 complete control)

CCn1nc(C(C)(C)C)cc1C(=O)Nc1cccc(OC(F)(F)F)c1 [Compound 272]
100: Foxtail, Giant plant response rating (giant foxtail [1]; [5]) | Morningglory plant response rating (morningglory; [3]) | Plant response rating, Morningglory (morningglory; [4]) | Pigweed plant response rating (redroot pigweed; [3]) | Plant response rating, Pigweed (redroot pigweed; [4]) | Pigweed plant response rating (redroot pigweed; [5]) | Pigweed plant response rating (redroot pigweed; [6]) | Pigweed plant response rating (pigweed; [7]) | Plant response rating, Pigweed (pigweed; [8]) | Plant response rating, Pigweed (pigweed; [9]) | Plant response rating, Pigweed (pigweed; [10]) | Velvetleaf plant response rating (velvetleaf; [7]) | Plant response rating, Velvetleaf (velvetleaf; [8])
20: Morningglory plant response rating (morningglory; [6]) | Plant response rating, Goosegrass (goosegrass; [10]) | Ducksalad plant response rating (ducksalad; [11])
85: Plant response rating, Soybean (soybean; [8]) | Plant response rating, Velvetleaf (velvetleaf; [10]) | Plant response rating, Ducksalad (ducksalad; [13])
0: Nutsedge, Yellow plant response rating (yellow nutsedge; [7]) | Plant response rating, Nutsedge, Yellow (yellow nutsedge; [8]) | Plant response rating, Nutsedge, Yellow (yellow nutsedge; [9]) | Plant response rating, Nutsedge, Yellow (yellow nutsedge; [10]) | Barnyardgrass plant response rating (barnyardgrass; 62 g ai/ha, scale 0 to 100 (0 no effect, 100 complete control)) | Barnyardgrass plant response rating (barnyardgrass; [11])
10: Ducksalad plant response rating (ducksalad; 62 g ai/ha, scale 0 to 100) | Barnyardgrass plant response rating (barnyardgrass; [12])
60: Plant response rating, Foxtail, Giant (giant foxtail [2]; [8]) | Plant response rating, Ragweed (common ragweed; [10]) | Plant response rating, Soybean (soybean; [10])
45: Foxtail, Giant plant response rating (giant foxtail [1]; [3]) | Plant response rating, Foxtail, Giant (giant foxtail [2]; [9])
75: Foxtail, Giant plant response rating (giant foxtail [2]; [7]) | Plant response rating, Goosegrass (goosegrass; [8])
40: Plant response rating, Crabgrass, Large (large crabgrass; [10]) | Ducksalad plant response rating (ducksalad; [12])
55: Morningglory plant response rating (morningglory; [5])
80: Plant response rating, Crabgrass, Large (large crabgrass; [8]) | Plant response rating, Crabgrass, Large (large crabgrass; [9]) | Goosegrass plant response rating (goosegrass; [7]) | Plant response rating, Ragweed (common ragweed; [8]) | Plant response rating, Soybean (soybean; [9])
65: Plant response rating, Goosegrass (goosegrass; [9]) | Plant response rating, Ragweed (common ragweed; [9])
95: Plant response rating, Foxtail, Giant (giant foxtail [1]; [4]) | Crabgrass, Large plant response rating (large crabgrass; [7]) | Ragweed plant response rating (common ragweed; [7]) | Soybean plant response rating (soybean; [7]) | Plant response rating, Velvetleaf (velvetleaf; [9])
90: Foxtail, Giant plant response rating (giant foxtail [1]; [6])
30: Plant response rating, Barnyardgrass (barnyardgrass; [13])
15: Plant response rating, Foxtail, Giant (giant foxtail [2]; [10])
